Assay [1] concerns DAT. Conditions: literature value, cited from earlier work; for pIC50: binding to the DAT.
Assay [2] deals with T1, dopamine transporter (Macaca fascicularis, UniProt Q9GJT6).
T1 construct: The caudate-putamen was dissected from coronal slices and yielded 1.4±0.4 g tissue; Membranes were prepared as described previously; from tissue; host or cells: caudate-putamen membranes of adult cynomolgus and rhesus monkeys
The assay can be described thus: Dopamine transporter assay: inhibition of {3H}WIN 35,428 binding in caudate-putamen membranes. Also on record: species or system rhesus or cynomolgus monkey. Particulars: for SERT/DAT: selectivity ratio of IC50 values; for IC50: {3H}WIN 35,428 binding, monkey caudate-putamen.

The target of assay [3] is T2, serotonin transporter (Macaca mulatta, UniProt Q9MYX0).
T2 construct: The serotonin transporter was assayed in caudate-putamen membranes using conditions similar to those for the dopamine transporter; from tissue; host or cells: caudate-putamen membranes of adult cynomolgus and rhesus monkeys
T2 sequence (Q9MYX0 whole entry): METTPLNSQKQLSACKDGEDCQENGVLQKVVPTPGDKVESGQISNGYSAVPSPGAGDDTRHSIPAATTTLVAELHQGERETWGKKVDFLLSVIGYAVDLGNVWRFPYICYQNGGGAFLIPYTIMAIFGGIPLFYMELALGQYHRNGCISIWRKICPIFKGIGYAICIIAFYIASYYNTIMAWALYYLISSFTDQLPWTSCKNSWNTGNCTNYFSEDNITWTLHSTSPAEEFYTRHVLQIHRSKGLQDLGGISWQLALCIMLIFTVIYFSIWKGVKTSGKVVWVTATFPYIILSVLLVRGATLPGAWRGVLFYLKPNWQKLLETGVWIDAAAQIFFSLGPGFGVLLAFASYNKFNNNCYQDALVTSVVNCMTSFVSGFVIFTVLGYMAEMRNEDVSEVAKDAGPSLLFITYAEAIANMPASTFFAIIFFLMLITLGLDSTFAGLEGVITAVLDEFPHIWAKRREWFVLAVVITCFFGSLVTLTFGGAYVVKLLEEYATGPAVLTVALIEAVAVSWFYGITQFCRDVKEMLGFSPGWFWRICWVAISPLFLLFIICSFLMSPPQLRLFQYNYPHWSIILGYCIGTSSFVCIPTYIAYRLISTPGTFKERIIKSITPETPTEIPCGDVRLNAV
The assay is described as follows: Serotonin transporter assay: inhibition of {3H}citalopram binding in caudate-putamen membranes. Further details: species or system rhesus or cynomolgus monkey.

Where [4] appears, read: Table 2, monkey caudate-putamen, read-out: IC50 (nM) SERT.
Where [5] appears, read: Table 2, read-out: IC50 (nM) DAT.
Setting [6] is: IC50 (nM) SERT, Table 2, monkey caudate-putamen.

Each structure is given as a SMILES string. pIC50: −log10 of the molar value. Like-named read-outs stand apart in the source and are kept apart here.

A word on the pIC50: it is −log10 of the IC50, conventionally taken in molar units. As a reminder, the IC50 is the concentration needed to halve the response being measured.

T1 sequence (Q9GJT6 whole entry): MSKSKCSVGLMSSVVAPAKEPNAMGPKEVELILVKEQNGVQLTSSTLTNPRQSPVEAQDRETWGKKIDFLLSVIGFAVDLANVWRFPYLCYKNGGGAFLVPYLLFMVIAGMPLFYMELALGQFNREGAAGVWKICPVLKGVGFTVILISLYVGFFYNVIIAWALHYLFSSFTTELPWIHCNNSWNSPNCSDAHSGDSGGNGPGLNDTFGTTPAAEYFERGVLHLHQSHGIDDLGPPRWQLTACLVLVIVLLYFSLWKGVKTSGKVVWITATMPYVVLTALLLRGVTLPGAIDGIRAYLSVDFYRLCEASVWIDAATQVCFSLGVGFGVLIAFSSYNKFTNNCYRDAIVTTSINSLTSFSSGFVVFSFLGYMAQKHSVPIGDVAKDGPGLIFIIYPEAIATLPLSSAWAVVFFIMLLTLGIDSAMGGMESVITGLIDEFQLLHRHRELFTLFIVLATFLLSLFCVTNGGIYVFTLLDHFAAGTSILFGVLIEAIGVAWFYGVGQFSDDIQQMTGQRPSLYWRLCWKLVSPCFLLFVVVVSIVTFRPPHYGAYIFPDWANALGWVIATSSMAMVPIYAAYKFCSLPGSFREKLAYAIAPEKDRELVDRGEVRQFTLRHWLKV

On to `COC(=O)C1C(c2ccc(Cl)c(Cl)c2)CC2CCC1N2C` (stereo not drawn) [Compound O-401, 2-carbomethoxy-3-(3,4-dichlorophenyl)-N -methyltropane], for which the pIC50 in assay [1] is 8.96.
Consider `COC(=O)C1C(c2ccc3ccccc3c2)CC2CC(O)C1N2C` (stereo not drawn) [Compound 18b, 2β-Carbomethoxy-3α-(2-naphthyl)-7β-hydroxy-8-methyl-8-azabicyclo{3.2.1}octane], for which, in assay [2] (Table 2), the SERT/DAT is 34. For the same compound, the IC50 in assay [3] (setting [4]) was found to be 94 nM.
On to `COC(=O)[C@@H]1[C@H]2[C@H](O)C[C@@H](C[C@H]1c1ccc(F)cc1)N2C` [Compound 18c, 2β-Carbomethoxy-3α-(4-fluorophenyl)-7β-hydroxy-8-methyl-8-azabicyclo{3.2.1}octane], for which the SERT/DAT in assay [2] (Table 2) is given as over 120. Also, the IC50 was 110 nM in assay [2] (setting [5]) and over 20000 nM in assay [3] (setting [4]).
`COC(=O)[C@@H]1[C@H]2CC[C@@H](C[C@H]1c1ccc(Cl)c(Cl)c1)N2C` [Compound 16a]: the IC50 came to 0.38 nM in assay [2] (IC50 (nM) DAT, Table 2) and 27.7 nM in assay [3] (setting [6]). Further, in assay [2] (Table 2), the SERT/DAT turned out to be 73.
`COC(=O)[C@H]1[C@@H](OC(=O)c2ccccc2)C[C@@H]2CC[C@H]1N2C` [(1R)-(−)-cocaine]: the “binds at the dopamine transporter more potently than (1S)-(+)-cocaine” value in assay [1] is on record as “about 200 fold”.
In the case of `COC(=O)[C@@H]1[C@H]2C[C@H](O)[C@@H](C[C@H]1c1ccc(Cl)c(Cl)c1)N2C` (relative stereo) [Compound 17a, 2β-Carbomethoxy-3α-(3,4-dichlorophenyl) -6β-hydroxy-8-methyl-8-azabicyclo{3.2.1}octane], the half-inhibitory concentration (IC50) in assay [2] (IC50 (nM) DAT, Table 2) came out at 6.09 nM; in assay [3] (setting [6]), 1450 nM. Also, in assay [2] (Table 2), the SERT/DAT was 238.
As for `COC(=O)C1C(c2ccc(Cl)c(Cl)c2)CC2CC(O)C1N2C` (single isomer, unassigned) [(1S)-18a], the 50% inhibitory concentration (IC50) in assay [2] (IC50 (nM) DAT, Table 2) came to 0.76 nM; in assay [3] (setting [6]) it was 1220 nM.
Consider `COC(=O)[C@@H]1[C@H]2C[C@H](O)[C@@H](C[C@H]1c1ccc(F)cc1)N2C` (relative stereo) [Compound 17c, 2βCarbomethoxy-3α-(4-fluorophenyl)-6β-hydroxy-8-methyl-8-azabicyclo{3.2.1}octane], for which the IC50 in assay [2] (IC50 (nM) DAT, Table 2) amounted to 739 nM; in assay [3] (setting [6]) it was 5820 nM. In assay [2] (Table 2), the SERT/DAT was found to be 8.
Take `COC(=O)[C@@H]1[C@H]2[C@H](O)C[C@@H](C[C@H]1c1ccccc1)N2C` (relative stereo) [Compound 18d, 2β-Carbomethoxy-3α-phenyl-7β-hydroxy-8-methyl-8-azabicyclo{3.2.1}octane]: the IC50 in assay [2] (IC50 (nM) DAT, Table 2) was 518 nM; in assay [3] (setting [6]) it was over 100000 nM. Moreover, the SERT/DAT in assay [2] (Table 2) is on record as over 190.
The like results for `COC(=O)[C@@H]1[C@H]2C[C@H](O)[C@@H](C[C@H]1c1ccccc1)N2C` (relative stereo) [Compound 17d, 2β-Carbomethoxy-3α-phenyl-6β-hydroxy-8-methyl-8-azabicyclo{3.2.1}octane] were, in that order, 3530 nM, over 10000 nM and over 3.
As for `COC(=O)C1C(c2ccc(F)cc2)CC2CCC1N2C` (stereo not drawn) [WIN 35,428, 2-carbomethoxy-3-(4-fluorophenyl)-N-methyltropane], the pIC50 in assay [1] is […].
Regarding `COC(=O)C1C(c2ccc3ccccc3c2)CC2C(O)CC1N2C` (stereo not drawn) [Compound 17b, 2β-Carbomethoxy-3α-(2-naphthyl)-6β-hydroxy-8-methyl-8-azabicyclo{3.2.1}octane], the SERT/DAT in assay [2] (Table 2) is listed as 6. Moreover, the IC50 in assay [2] (setting [5]) was determined as 32 nM; in assay [3] (setting [4]) it was 180 nM.
Take `COC(=O)[C@@H]1[C@H]2[C@H](O)C[C@@H](C[C@H]1c1ccc(Cl)c(Cl)c1)N2C` (relative stereo) [Compound 18a, 2β-Carbomethoxy-3α(3,4-dichlorophenyl)-7β-hydroxy-8-methyl-8-azabicyclo{3.2.1}octane]: the IC50 in assay [2] (IC50 (nM) DAT, Table 2) was found to be 1.19 nM; in assay [3] (setting [6]), 1390 nM. In addition, the SERT/DAT in assay [2] (Table 2) was 1,170.
Take `CCC(=O)C1C(c2ccc(Cl)c(Cl)c2)CC2CC(O)C1N2C` (stereo not drawn) [Compound 26, 1-{3α-(3,4-Dichlorophenyl)-7β-hydroxy-8-methyl-8-azabicyclo{3.2.1}oct-2-yl}propan-1-one]: the IC50 is 1.1 nM in assay [2] (Table 1, read-out: IC50 (nM) DAT) and 2520 nM in assay [3] (Table 1, monkey caudate-putamen, read-out: IC50 (nM) SERT).
On to `COC(=O)C1C(c2ccc(Cl)c(Cl)c2)CC2CC(O)C1N2C` (single isomer, unassigned) [(1R)-18a], for which the IC50 came to 482 nM in assay [2] (IC50 (nM) DAT, Table 2) and 5300 nM in assay [3] (setting [6]). The SERT/DAT in assay [2] (Table 2) turned out to be 11.
`COC(=O)[C@@H]1[C@H]2CC[C@@H](C[C@H]1c1ccc(F)cc1)N2C` (relative stereo) [Compound 16c]: the IC50 in assay [2] (IC50 (nM) DAT, Table 2) was found to be 17.9 nM; in assay [3] (setting [6]), 1130 nM. Also, the SERT/DAT in assay [2] (Table 2) was 63.

(Values after patent publication US20030125352A1, “Therapeutic tropane compounds” (priority 2001, published 2003).)
